The text below walks through data of patent US20090099192A1, “Substituted 1H-pyrrole-2,5-diones” (Bayer CropScience AG, priority 2004, published 2009).

The series in a line: logP determination by HPLC on reversed-phase column (C 18), EEC Directive 79/831 Annex V.A8. Format: physicochemical. Particulars: reversed-phase C 18, 43° C., acid range (0.1% aqueous phosphoric acid, acetonitrile), marked a). As to the method:
a) The logP values given in table 1 were determined in accordance with EEC Directive 79/831 Annex V.A8 by HPLC (High Performance Liquid Chromatography) on a reversed-phase column (C 18). Temperature: 43° C. (a) Mobile phases for the determination in the acid range: 0.1% aqueous phosphoric acid, acetonitrile; linear gradient from 10% acetonitrile to 90% acetonitrile—corresponding measurement results are marked a) in table 1. Calibration was carried out using unbranched alkan-2-ones (having 3 to 16 carbon atoms) with known logP values (determination of the logP values by the retention times using linear interpolation between two successive alkanones).
For `O=C1C(O)=C(c2ccc(OC(F)(F)F)cc2)C(=O)N1Cc1ccccc1F` [Example 97], the logP entry is on record as “logP = 3.83^a)”. The result for `N#Cc1ccc(C2=C(O)C(=O)N(Cc3ccccc3F)C2=O)cc1` [Example 98] reads “logP = 2.31^a)”; that for `O=C1C(O)=C(c2ccc(Cl)cc2)C(=O)N1Cc1ccccc1F` [Example 99], “logP = 3.56^a)”; that for `O=C1C(O)=C(c2ccc(C(F)(F)F)cc2)C(=O)N1Cc1ccccc1F` [Example 100], “logP = 3.40^a)”. The result for `O=C1C(O)=C(c2cccc(OC(F)(F)F)c2)C(=O)N1Cc1ccccc1F` [Example 101] reads “logP = 3.64^a)”; that for `O=C1C(O)=C(c2cc(Cl)cc(Cl)c2)C(=O)N1Cc1ccccc1F` [Example 102], “logP = 3.48^a)”; that for `Cc1ccc(C2=C(O)C(=O)N(Cc3ccccc3F)C2=O)cc1` [Example 103], “logP = 3.51^a)”. As for `Cc1cc(C)c(C2=C(O)C(=O)N(Cc3c(F)cccc3F)C2=O)c(C)c1` [Example 104], the entry is “logP = 3.48^a)”; as for `O=C1C(O)=C(c2cc(Cl)cc(Cl)c2)C(=O)N1Cc1c(F)cccc1F` [Example 109], “logP = 3.20^a)”. `O=C1C(O)=C(c2ccccc2F)C(=O)N1Cc1cc(Cl)cc(Cl)c1` [Example 110]: the logP entry was “logP = 3.56^a)”.

`O=C1C(O)=C(c2ccccc2Cl)C(=O)N1Cc1cc(Cl)cc(Cl)c1` [Example 111]: the logP result is “logP = 3.67^a)”. The result for `O=C1C(O)=C(c2cccc(C(F)(F)F)c2)C(=O)N1Cc1cc(Cl)cc(Cl)c1` [Example 112] reads “logP = 4.27^a)”; that for `O=C1C(O)=C(c2ccc(OC(F)(F)F)cc2)C(=O)N1Cc1cc(Cl)cc(Cl)c1` [Example 113], “logP = 4.67^a)”.

`N#Cc1ccc(C2=C(O)C(=O)N(Cc3cc(Cl)cc(Cl)c3)C2=O)cc1` [Example 114]: the logP entry is given as “logP = 2.94^a)”. As for `O=C1C(O)=C(c2ccc(Cl)cc2)C(=O)N1Cc1cc(Cl)cc(Cl)c1` [Example 115], the entry is “logP = 4.48^a)”; as for `O=C1C(O)=C(c2ccc(C(F)(F)F)cc2)C(=O)N1Cc1cc(Cl)cc(Cl)c1` [Example 116], “logp = 4.18^a)”. As for `O=C1C(O)=C(c2cccc(OC(F)(F)F)c2)C(=O)N1Cc1cc(Cl)cc(Cl)c1` [Example 117], the entry is “logP = 4.45^a)”. As for `O=C1C(O)=C(c2cc(Cl)cc(Cl)c2)C(=O)N1Cc1cc(Cl)cc(Cl)c1` [Example 118], the logP entry is listed as “logP = 4.21^a)”. Consider `Cc1ccc(C2=C(O)C(=O)N(Cc3cc(Cl)cc(Cl)c3)C2=O)cc1` [Example 119], for which the logP result is “logp = 4.42^a)”.

As for `Cc1ccc(-c2ccc(Cl)cc2)cc1C1=C(O)C(=O)N(C(C)c2ccc(Cl)cc2)C1=O` (stereo not shown) [Example 120], the logP result is on record as “logP = 4.94^a)”. Consider `Cc1ccc(-c2ccc(Cl)cc2)cc1C1=C(O)C(=O)N(Cc2ccc(Cl)cc2Cl)C1=O` [Example 121], for which the logP result is “logP = 5.03^a)”. As for `Cc1ccc(-c2ccc(Cl)cc2)cc1C1=C(O)C(=O)N(C(C)C)C1=O` [Example 122], the entry is “logP = 4.08^a)”. As for `Cc1ccc(-c2ccc(Cl)cc2)cc1C1=C(O)C(=O)N(Cc2cccc(Cl)c2)C1=O` [Example 123], the entry is “logP = 4.61^a)”. As for `Cc1ccc(-c2ccc(Cl)cc2)cc1C1=C(O)C(=O)N(c2c(F)cccc2F)C1=O` [Example 124], the entry is “logP = 3.85^a)”. In the case of `Cc1ccc(-c2ccc(Cl)cc2)cc1C1=C(O)C(=O)N(CC2CC2)C1=O` [Example 125], the logP entry is “logP = 4.08^a)”. As to `Cc1ccc(-c2ccc(Cl)cc2)cc1C1=C(O)C(=O)N(c2ccc(Cl)cc2Cl)C1=O` [Example 126], the logP entry was “logP = 4.51^a)”. The result for `Cc1ccc(-c2ccc(Cl)cc2)cc1C1=C(O)C(=O)N(c2c(Cl)cc(Cl)cc2Cl)C1=O` [Example 127] reads “logP = 4.75^a)”. As for `Cc1ccc(-c2ccc(Cl)cc2)cc1C1=C(O)C(=O)N(Cc2cccc(C(F)(F)F)c2)C1=O` [Example 128], the entry is “logP = 4.65^a)”; as for `Cc1ccc(-c2ccc(Cl)cc2)cc1C1=C(O)C(=O)N(c2ccccc2Cl)C1=O` [Example 129], “logP = 4.03^a)”; as for `Cc1ccc(-c2ccc(Cl)cc2)cc1C1=C(O)C(=O)N(Cc2ccccc2OC(F)(F)F)C1=O` [Example 133], “logP = 4.75^a)”. The result for `Cc1ccc(-c2ccc(Cl)cc2)cc1C1=C(O)C(=O)N(Cc2ccc(OC(F)(F)F)cc2)C1=O` [Example 134] reads “logP = 4.84^a)”. Consider `Cc1ccc(-c2ccc(Cl)cc2)cc1C1=C(O)C(=O)N(c2c(Cl)cccc2Cl)C1=O` [Example 135], for which the logP entry was “logP = 4.18^a)”. For the compound `Cc1ccc(-c2ccc(Cl)cc2)cc1C1=C(O)C(=O)N(C(C)(C)C)C1=O` [Example 137], the logP entry is recorded as “logP = 4.51^a)”. Consider `Cc1ccc(-c2ccc(Cl)cc2)cc1C1=C(O)C(=O)N(CC(C)(C)C)C1=O` [Example 138], for which the logP result is on record as “logP = 4.61^a)”. As for `Cc1ccc(-c2ccc(Cl)cc2)cc1C1=C(O)C(=O)N(Cc2cc(Cl)ccc2Cl)C1=O` [Example 139], the entry is “logP = 4.84^a)”. As for `Cc1ccc(-c2ccc(Cl)cc2)cc1C1=C(O)C(=O)N(Cc2c(Cl)cccc2Cl)C1=O` [Example 140], the entry is “logP = 4.70^a)”; as for `Cc1ccc(-c2ccc(Cl)cc2)cc1C1=C(O)C(=O)N(C(C)(C)c2ccccc2Cl)C1=O` [Example 142], “logP = 4.80^a)”; as for `Cc1ccc(-c2ccc(Cl)cc2)cc1C1=C(O)C(=O)N(C(C)(C)c2cccc(Cl)c2)C1=O` [Example 143], “logP = 4.99^a)”. Consider `N#Cc1ccc(C2=C(O)C(=O)N(c3ccc(C(F)(F)F)cc3F)C2=O)cc1` [Example 144], for which the logP entry is listed as “logP = 6.09^a)”. As for `Cc1ccc(-c2ccc(Cl)cc2)cc1C1=C(O)C(=O)N(c2ccccc2F)C1=O` [Example 145], the entry is “logP = 4.94^a)”; as for `Cc1ccc(-c2ccc(Cl)cc2)cc1C1=C(O)C(=O)N(c2cc(F)ccc2F)C1=O` [Example 146], “logP = 4.51^a)”; as for `CCOC(=O)C1CCCC(N2C(=O)C(O)=C(c3ccccc3Cl)C2=O)C1` (stereo not shown) [Example 150], “logP = 3.01^a)”. As for `CCCCOC1CCCC(N2C(=O)C(O)=C(c3ccccc3Cl)C2=O)C1` (stereo not shown) [Example 152], the entry is “logP = 3.70^a)”.

`CCCCOC1CCCC(N2C(=O)C(O)=C(c3ccccc3Cl)C2=O)C1` (stereo not shown) [Example 153]: the logP result was “logP = 4.09^a)”. As for `O=C1C(O)=C(c2ccccc2Cl)C(=O)N1C1CCOCC1` [Example 154], the entry is “logP = 1.94^a)”; as for `CC(C)(C)OC(=O)N1CCCC(N2C(=O)C(O)=C(c3ccccc3Cl)C2=O)C1` (stereo not shown) [Example 155], “logP = 3.18^a)”. The result for `CC(C)(C)C(=O)OC1=C(c2ccccc2Cl)C(=O)N(C2CCOCC2)C1=O` [Example 156] reads “logP = 3.87 ^a)”; that for `N#CC1(N2C(=O)C(O)=C(c3ccccc3Cl)C2=O)CCCCC1` [Example 157], “logP = 2.72^a)”; that for `CC1CCCC(C#N)(N2C(=O)C(O)=C(c3ccccc3Cl)C2=O)C1` (stereo not shown) [Example 158], “logP = 3.06^a)”. As for `CC1CC(N2C(=O)C(O)=C(c3ccccc3Cl)C2=O)CC(C)(C)C1` (stereo not shown) [Example 159], the entry is “logP = 4.18^a)”; as for `CC1(C)CC(N2C(=O)C(O)=C(c3ccccc3Cl)C2=O)CC(C)(C)C1` [Example 160], “logP = 4.41^a)”. For `O=C1C(O)=C(c2ccccc2Cl)C(=O)N1C12CC3CC(CC(C3)C1)C2` [Example 161], the logP result is “logP = 4.20^a)”.

On to `CC1CCCC(N2C(=O)C(O)=C(c3ccccc3Cl)C2=O)C1` (stereo not shown) [Example 162], for which the logP entry is reported as “logP = 3.57^a)”.

With `CC1CCCC(N2C(=O)C(O)=C(c3ccccc3Br)C2=O)C1` (stereo not shown) [Example 163], the logP entry was “logP = 3.61^a)”.

Consider `O=C1C(O)=C(c2ccccc2Cl)C(=O)N1c1ncc(C(F)(F)F)s1` [Example 164], for which the logP entry is “logP = 3.14^a)”. The result for `COC(=O)C1(N2C(=O)C(O)=C(c3ccccc3Cl)C2=O)CCCCC1` [Example 165] reads “logP = 3.10^a)”; that for `COC(=O)C1(N2C(=O)C(O)=C(c3ccccc3Cl)C2=O)CCCC(C)C1` (stereo not shown) [Example 166], “logP = 3.48^a)”; that for `CCOC(=O)C1(N2C(=O)C(O)=C(c3ccccc3Cl)C2=O)CCCCC1` [Example 167], “logP = 3.40^a)”. With `CCOC(=O)C1(N2C(=O)C(O)=C(c3ccccc3Cl)C2=O)CCCC(C)C1` (stereo not shown) [Example 168], the logP entry is listed as “logP = 3.78^a)”. In the case of `CCOC(=O)C1(N2C(=O)C(OC(=O)C(C)(C)C)=C(c3ccccc3Cl)C2=O)CCCCC1` [Example 169], the logP entry is recorded as “logP = 5.50^a)”.

`CCOC(=O)C1(N2C(=O)C(OC(=O)C(C)(C)C)=C(c3ccccc3Cl)C2=O)CCCC(C)C1` (stereo not shown) [Example 170]: the logP result is on record as “logP = 5.85^a)”. As for `CC1CCCC(C#N)(N2C(=O)C(OC(=O)C(C)(C)C)=C(c3ccccc3Cl)C2=O)C1` (stereo not shown) [Example 171], the entry is “logP = 5.01^a)”. `CCOc1cccc(F)c1CN1C(=O)C(O)=C(c2ccc(C#N)cc2)C1=O` [Example 172]: the logP result is “logP = 2.61^a)”.

Regarding `CCOC(=O)C1CCCCC1N1C(=O)C(O)=C(c2c(C)cc(-c3ccc(Cl)cc3)cc2C)C1=O` (stereo not shown) [Example 174], the logP result is on record as “logP = 4.87^a)”. The result for `CC1CCCC(N2C(=O)C(O)=C(c3cccc(C(F)(F)F)c3)C2=O)C1` (stereo not shown) [Example 175] reads “logP = 4.56^a)”; that for `CCOC(=O)CCN1C(=O)C(O)=C(c2ccccc2Cl)C1=O` [Example 177], “logP = 2.21^a)”. For `CCOC(=O)CCN1C(=O)C(O)=C(c2cccc(OC(F)(F)F)c2)C1=O` [Example 178], the logP result is on record as “logP = 3.95^a)”.
